Experiments:
TM [1] = assay: APC generation in the absence of added THR (control); type: biochemical; conditions: PF4 alone or PF4 together with TM
Protocol: (§1) The reaction was allowed to proceed for 10 minutes, then quenched by the addition of AT III (obtained from Enzyme Research Laboratories, Inc., South Bend, Ind.) and EDTA. APC was quantified spectrophotometrically with the chromogenic substrate S-2366 (obtained from Kabi Vitrum, Franklin, Ohio). The spectrophotometric analysis involved the conversion of the chromogenic substrate at […] in a 37° C. spectrophotometer cell based on the initial rate of optical density change. Negative controls of plastic wells treated in a parallel fashion except that TM was omitted. Values obtained from these controls were then subtracted from the rates measured for wells containing monolayers.
(§2) PF4 accelerates APC generation by full-length rabbit TM and GAG- TM 4-fold, and that of GAG+ TM 25-fold. GAG+ TM was also accelerated 10-fold by PF4 in the presence of 15% defibrinated plasma. […] The increase in APC was not an artifact of PF4 influencing the catalytic activity of APC towards chromogenic substrate.

GAG+ TM [2] = biological target: T1, GAG+ TM (Homo sapiens, UniProt P07204); assay: APC generation by recombinant GAG+ TM with thrombin and protein C (chromogenic S-2366); type: biochemical; conditions: for acceleratory effect upon APC generation by thrombomodulin (GAG+ TM): conditions of Example 1, GAG+ TM, FIG. 4
T1 construct: encompassing the entire extracellular domain ([amino acids 1-497], which includes the serine 492 glycosylation site); host or cells: Chinese Hamster Ovary cells
T1 sequence (P07204 19-515): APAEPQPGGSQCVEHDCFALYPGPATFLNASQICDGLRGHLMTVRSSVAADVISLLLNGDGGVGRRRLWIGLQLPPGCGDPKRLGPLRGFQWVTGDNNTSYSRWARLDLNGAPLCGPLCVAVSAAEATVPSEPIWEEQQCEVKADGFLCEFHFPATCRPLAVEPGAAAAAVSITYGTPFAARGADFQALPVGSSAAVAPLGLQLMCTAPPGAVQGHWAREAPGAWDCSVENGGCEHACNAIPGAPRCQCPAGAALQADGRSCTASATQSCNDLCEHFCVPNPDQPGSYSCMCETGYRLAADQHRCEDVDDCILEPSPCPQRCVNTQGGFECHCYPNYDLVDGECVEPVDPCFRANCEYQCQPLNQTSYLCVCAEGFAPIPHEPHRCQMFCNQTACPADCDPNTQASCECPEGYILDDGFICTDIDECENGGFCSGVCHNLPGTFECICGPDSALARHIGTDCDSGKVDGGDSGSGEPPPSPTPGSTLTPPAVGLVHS
Protocol: (§3) Human PF4 was purified from outdated platelets by THR stimulation, NH4 SO4 precipitation, heparin affinity chromatography, and Scphadex G-100 chromatography using a technique described in T. F. Deuel et al., Proc. Natl. Acad. Sci. USA, 74, 2256-2258 (1977), which is incorporated herein by reference. Dose-response studies were then performed with increasing amounts of PF4 to assay its effect upon the ability of three TM preps to generate APC from protein C. The three TM preps employed were: a) full-length rabbit TM purified from lungs (see, N. L. Esmon et al., J. Biol. Chem., 257, 859-864 (1982)); and b) two differentially glycated versions of a recombinantly produced polypeptide fragment of human TM encompassing the entire extracellular domain ([amino acids 1-497], which includes the serine 492 glycosylation site) expressed in Chinese Hamster Ovary cells, provided by Berlex Biosciences (Richmond, Calif.). See, C. B. Glaser et al., J. Clin. Invest., 90, 2565-2573 (1992). These polypeptides were produced in two chromatographically separable forms: the first has an apparent molecular weight of 116 kD and contains a chondroitinase ABC-cleavable GAG moiety (henceforth referred to GAG+ TM); the second is an unglycated version of the same polypeptide with apparent molecular weight of 95 kD, henceforth referred to as GAG- TM.
as §1, with “For each type of TM, 2 nM TM and 500 nM protein C were incubated together in the presence of 1 mM (i.e., physiologic) Ca^2+ with or without PF4, and the generation of APC initiated by the addition of 2 nM THR in 50 mM Tris, 100 mM NaCl, pH 7.4 at 37° C. The reaction” for “The reaction”
The conditions used were identical to those listed in Example 1 except GAG+ TM obtained from Berlex Biosciences was used for all experiments.

[3] = tested on: cell-surface TM on porcine aortic endothelial cell (PAEC) monolayers; assay: APC generation by porcine aortic endothelial cell monolayers; type: cell-based
Protocol: In these experiments, 1 cm^2 monolayers of endothelial cells were overlaid with PBS buffer containing 500 nM PC and 1 mM Ca^2+, then further supplemented with either PBS or PBS with 15% (v/v) bovine serum. To these wells were then added increasing concentrations of purified native PF4. The resultant mixture was incubated for 20 minutes after which either 2 nM (PBS) or 10 nM THR (15% serum) was added and the generation of APC allowed to proceed for 45 minutes prior to quenching with addition of AT III and EDTA.

GAG- TM = assay: APC generation by recombinant GAG- TM with thrombin and protein C (chromogenic S-2366); type: biochemical, human
Protocol: as §3, with “These polypeptides were produced in two chromatographically separable forms: the first has an apparent molecular weight of 116 kD and contains a chondroitinase ABC-cleavable GAG moiety (henceforth referred to GAG+ TM); the second is an unglycated version of the same polypeptide with apparent molecular weight of 95 kD, henceforth referred to as GAG- TM.” left out
The reaction was allowed to proceed for 10 minutes, then quenched by the addition of AT III (obtained from Enzyme Research Laboratories, Inc., South Bend, Ind.) and EDTA. APC was quantified spectrophotometrically with the chromogenic substrate S-2366 (obtained from Kabi Vitrum, Franklin, Ohio). […] Values obtained from these controls were then subtracted from the rates measured for wells containing monolayers. […]

APC = assay: Detection of known amounts of APC in 15% serum by chromogenic substrate (control); type: biochemical; conditions: known amounts of APC added to 15% serum, not shown
Protocol: In addition to stimulating APC generation by soluble forms of TM in buffers, PF4 also stimulates APC generation of cell-surface TM on porcine aortic endothelial cell (PAEC) monolayers in plasmatic conditions. In these experiments, 1 cm^2 monolayers of endothelial cells were overlaid with PBS buffer containing 500 nM PC and 1 mM Ca^2+, then further supplemented with either PBS or PBS with 15% (v/v) bovine serum. To these wells were then added increasing concentrations of purified native PF4. The resultant mixture was incubated for 20 minutes after which either 2 nM (PBS) or 10 nM THR (15% serum) was added and the generation of APC allowed to proceed for 45 minutes prior to quenching with addition of AT III and EDTA. Supernatants were then centrifuged to remove cellular debris and APC generation quantified using chromogenic substrate S-2366 as described above. In the absence of added serum, there is a 2 1/2-fold increase in APC generation with an optimum at 3.3 μg/ml of PF4, but decreasing APC generation with higher concentrations. In contrast, in the presence of 15% serum, the baseline APC generation is much lower despite the presence of higher concentrations of THR. There is a PF4 dose-dependent increase in APC generation with an optimum at 33 μg/ml PF4, at which point APC generation is 10-fold higher than baseline. […]

full-length rabbit TM = biological target: T2, full-length rabbit TM (Oryctolagus cuniculus, UniProt Q8HZ48); assay: APC generation by soluble full-length rabbit TM with thrombin and protein C (chromogenic S-2366); type: biochemical; conditions: 2 nM TM, 500 nM protein C, 1 mM Ca2+, 2 nM THR, 10 min, 37° C., over baseline
T2 construct: full-length rabbit TM purified from lungs; from tissue; host or cells: rabbit lung (purified after N. L. Esmon et al. 1982)
T2 sequence (Q8HZ48 19-580): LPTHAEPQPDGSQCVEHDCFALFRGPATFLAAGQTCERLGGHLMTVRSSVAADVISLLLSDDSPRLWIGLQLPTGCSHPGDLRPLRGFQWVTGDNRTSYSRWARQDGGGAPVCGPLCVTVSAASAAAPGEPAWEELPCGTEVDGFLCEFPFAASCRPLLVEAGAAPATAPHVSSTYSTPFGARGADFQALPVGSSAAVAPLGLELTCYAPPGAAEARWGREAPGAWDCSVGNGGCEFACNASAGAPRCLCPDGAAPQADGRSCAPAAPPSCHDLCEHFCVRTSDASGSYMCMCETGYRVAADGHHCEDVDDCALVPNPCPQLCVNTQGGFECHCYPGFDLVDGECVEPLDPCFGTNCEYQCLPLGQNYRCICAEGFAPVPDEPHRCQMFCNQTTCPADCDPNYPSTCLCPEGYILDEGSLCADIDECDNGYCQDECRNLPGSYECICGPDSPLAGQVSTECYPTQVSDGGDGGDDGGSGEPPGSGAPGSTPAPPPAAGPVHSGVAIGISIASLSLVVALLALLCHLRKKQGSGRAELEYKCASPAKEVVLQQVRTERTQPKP
Protocol: For each type of cationic protein or modification thereof to be tested, 2 nM TM (full-length rabbit TM) and 500 nM protein C are incubated together in the presence of 1 mM (i.e., physiologic) Ca^2+ with either no cationic protein (for a baseline determination) or […] of the cationic protein. The generation of APC is initiated by the addition of 2 nM THR in 50 mM of the buffer Tris, 100 mM NaCl, pH 7.4 at 37° C. The reaction is allowed to proceed for 10 minutes, then quenched by the addition of AT III (antithrombin obtained from Enzyme Research Laboratories, Inc., South Bend, Ind.) and EDTA. […] A cationic protein that can be used in the methods and compositions of the present invention include those that show at least a two-fold increase in APC production, relative to a baseline of APC generated without the cationic protein.
Dose-response studies were then performed with increasing amounts of PF4 to assay its effect upon the ability of three TM preps to generate APC from protein C. […] See, C.
For each type of TM, 2 nM TM and 500 nM protein C were incubated together in the presence of 1 mM (i.e., physiologic) Ca^2+ with or without PF4, and the generation of APC initiated by the addition of 2 nM THR in 50 mM Tris, 100 mM NaCl, pH 7.4 at 37° C. The reaction was allowed to proceed for 10 minutes, then quenched by the addition of AT III (obtained from Enzyme Research Laboratories, Inc., South Bend, Ind.) and EDTA. […] Negative controls of plastic wells treated in a parallel fashion except that TM was omitted. Values obtained from these controls were then subtracted from the rates measured for wells containing monolayers.

GAG+ TM [4] = biological target: T1, GAG+ TM; assay: APC generation by recombinant GAG+ TM with thrombin and protein C (chromogenic S-2366); type: biochemical
TM [5] = assay: APC formation with exogenous TM in combination with PF4; conditions: pharmacological (exogenous) TM in combination with purified naturally occurring or recombinant PF4
Text: The particularly preferred compositions of the present invention include those containing purified PF4, or a modification thereof, and a thrombomodulin preparation, such as purified soluble GAG+ thrombomodulin. Such compositions display particularly high levels of APC formation, and thus particularly effective levels of anticoagulation. For example, with the administration of a pharmacological form of TM, i.e., an exogenous form, in combination with purified naturally occurring or recombinant PF4, there is a 3-8 fold increase in the amount of APC formed, as compared to the administration of PF4 alone using endogenous forms of TM. This is particularly advantageous because TM and PF4, individually or together, have a higher therapeutic index than does heparin, which is currently used for anticoagulation therapy.

THR = assay: TM-independent activation of protein C by THR (control); type: biochemical; conditions: controls, not shown
Protocol: For each type of TM, 2 nM TM and 500 nM protein C were incubated together in the presence of 1 mM (i.e., physiologic) Ca^2+ with or without PF4, and the generation of APC initiated by the addition of 2 nM THR in 50 mM Tris, 100 mM NaCl, pH 7.4 at 37° C. The reaction was allowed to proceed for 10 minutes, then quenched by the addition of AT III (obtained from Enzyme Research Laboratories, Inc., South Bend, Ind.) and EDTA. APC was quantified spectrophotometrically with the chromogenic substrate S-2366 (obtained from Kabi Vitrum, Franklin, Ohio). The spectrophotometric analysis involved the conversion of the chromogenic substrate at […] in a 37° C. spectrophotometer cell based on the initial rate of optical density change. Negative controls of plastic wells treated in a parallel fashion except that TM was omitted. Values obtained from these controls were then subtracted from the rates measured for wells containing monolayers.
as §2

[6] = tested on: purified, soluble rabbit TM; conditions: polyanions added to MBP-inhibited TM; cited from earlier work
[7] = 2 nM TM, 500 nM protein C, 1 mM Ca2+, 2 nM THR, 10 min, 37° C., over baseline

Question: With “PF4: moderately cationic and hydrophobic major protein constituent of platelet α-granules, 7.8 kD; human PF4 purified from outdated platelets” as the substance, how does the “APC generation in the absence of added THR” value (TM [1]) read?
Answer: neither PF4 alone nor PF4 together with TM generated APC

Question: And the “fold acceleration of APC generation by GAG+ TM” value (GAG+ TM [2]; [7])?
Answer: 25 fold

Question: And the “acceleration of GAG+ TM by PF4 relative to full-length rabbit TM and GAG- TM (fold-over-baseline basis)” value (GAG+ TM [2]; fold-over-baseline comparison)?
Answer: more than six times as much

Question: And the “fold acceleration of APC generation by GAG+ TM in plasma” value (GAG+ TM [2]; in the presence of 15% defibrinated plasma)?
Answer: 10 fold

Question: And the “PF4 concentration optimum for APC generation, PAEC, 15% serum” value ([3]; 15% (v/v) bovine serum, 10 nM THR)?
Answer: 33 µg/mL

Question: What about the “fold increase in APC generation over baseline, PAEC, 15% serum” value ([3]; 15% (v/v) bovine serum, 10 nM THR, at 33 μg/ml PF4) of the same substance?
Answer: 10 fold

Question: And the “PF4 concentration optimum for APC generation, PAEC, no serum” value ([3]; PBS, absence of added serum, 2 nM THR)?
Answer: 3.3 µg/mL

Question: What about the “fold acceleration of APC generation by GAG- TM” value (GAG- TM; [7]) of the same substance?
Answer: 4 fold

Question: What about the “effect of PF4 on Ca2+ dependence of APC generation by GAG- variant” value (GAG- TM; several Ca2+ concentrations, FIG. 2) of the same substance?
Answer: increases APC generation at all Ca^2+ concentrations but does not shift the overall shape of the curve

Question: And the “effect on APC detection by chromogenic substrate” value (APC)?
Answer: did not diminish or augment APC detection

Question: What about the “fold acceleration of APC generation by full-length rabbit TM” value (full-length rabbit TM) of the same substance?
Answer: 4 fold

Question: What about the “APC generation in the absence of Ca2+” value (GAG+ TM [4]; 0 calcium, buffers with 1 mM EDTA, GAG+ and GAG- forms of TM) of the same substance?
Answer: allows both the GAG+ and GAG- forms of TM to generate APC even in the absence of Ca^2+

Question: And the “Ca2+ optimum of APC generation by GAG+ TM with PF4 added” value (GAG+ TM [4]; PF4 added, FIG. 2)?
Answer: 0.5 mM

Question: And the “fold increase in the amount of APC formed, exogenous TM plus PF4 versus PF4 alone using endogenous TM” value (TM [5])?
Answer: 3-8 fold

Question: What about the “effect upon TM-independent activation of protein C by THR” value (THR) of the same substance?
Answer: essentially no effect

Question: Which “acceleratory effect upon APC generation by thrombomodulin (GAG+ TM)” value (“acceleratory effect upon APC generation” below) (GAG+ TM [2]) does the source give for chondroitin sulfate A here?
Answer: no such effect

Question: With chondroitin sulfate E as the substance, how does the “acceleratory effect upon APC generation” value (GAG+ TM [2]) read?
Answer: no such effect

Question: What about the “reversal of MBP inhibition of APC generation” value [6] of the same substance?
Answer: reversed

Question: For heparin, which “acceleratory effect upon APC generation” value (GAG+ TM [2]) is on record?
Answer: no such effect

Question: What about the “reversal of MBP inhibition of APC generation” value [6] of the same substance?
Answer: reversed

Question: For poly-L-lysine, which “acceleratory effect upon APC generation” value (GAG+ TM [2]) is on record?
Answer: can be replicated

Question: And the “fold acceleration of APC generation by full-length rabbit TM” value (full-length rabbit TM)?
Answer: 2.5 fold

Question: For protamine sulfate, which “acceleratory effect upon APC generation” value (GAG+ TM [2]) is on record?
Answer: can be replicated

Question: And the “fold acceleration of APC generation by full-length rabbit TM” value (full-length rabbit TM)?
Answer: 2.5 fold

Question: Which “acceleratory effect upon APC generation” value (GAG+ TM [2]) does the source give for “thrombospondin: anionic protein; major constituent of platelet α-granules” here?
Answer: no such effect
